In US20140051650A1, “VAGINAL COMPOSITIONS BASED ON ALKYL POLYGLUCOSIDES” (EFFIK S.A., priority 2011, published 2014) one finds MIC and MBC data, which are given here for 2 substances.

Format in all cases: cell-based
Holding throughout (conditions): substance alone

Experiment [1] deals with Lactobacillus jensenii NCIMB 13279. Put plainly: MIC against Lactobacillus jensenii. As for the experimental part: The vaginal lactobacillus strains used are the NCIMB 4505 strain of Lactobacillus crispatus, the NCIMB 13279 strain of Lactobacillus jensenii and NCIMB 702820 strain of Lactobacillus gasseri. [table] The other assayed microbial strains were cultured in the liquid media and in the incubation conditions specified in table A, following the operating procedure described above. The assay was carried out in 96-well microtitre plates. 50 μl of substance solution at the “mother” concentration alongside 50 μl of liquid medium at double concentration were deposited in the first well of each of the 8 rows while 50 μl of liquid medium at normal concentration were deposited in the remaining 11 wells. Starting from the first well of each row, 50 μl volumes were transferred from each well to the subsequent one 10 times, thus obtaining a series of 11 dilutions after doubling. The 12th well of each row was kept substance-free as a function of positive control of the bacterial growth. Subsequently, 50 μl of diluted bacterial inoculum as specified previously were deposited in all wells of the plate, except for the 11th of each row. Only the liquid medium at single concentration but bacteria-free, was deposited in the 11th well, with the aim of providing negative control for each row. The described scheme was used for the assay with each of the assayed microbial strains. […]

The next experiment relates to Streptococcus agalactiae. Nature of the experiment: Minimum Bactericidal Concentration (MBC) in liquid medium against Streptococcus agalactiae. As for the experimental part:
Three Streptococcus agalactiae strains isolated from vaginal-rectal buffers during the prenatal check-ups were used for the assay. The strains were named “strain 2”, “strain 10” and “strain 11”. Isolation was carried out on a blood agar medium and identification was obtained through biochemical tests of the API 20 Strep (Bio-Mérieux) system and through the identification of the Lancefield group.
The experiments were also carried out on a Streptococcus agalactiae ATCC 12386 strain.
“Brain Heart Infusion broth” (BHIb, Becton Dickinson) medium was used for the Streptococcus agalactiae culture, “Mueller-Hinton broth” (M-Hb) medium after adding 2% “laked” horse blood and the “Mueller-Hinton agar” (M-Ha) medium with addition of defibrinated horse blood at 5% (Oxoid) were used for the antimicrobial activity assays.
The Streptococcus agalactiae strains were cultured in BHIb broth for 24 hours at 37° C. Immediately before the assay, the bacterial suspensions were diluted up to obtaining turbidity equivalent to 0.5 McFarland standard. 50 μl of a further 1:100 dilution in broth+blood at 2% were distributed in the wells of the microtitre plates. The presumed titre of the inoculum carried out through this procedure is of about 5×10^4 ufc (units forming colony)/well.
The bacterial cultures were also diluted serially according to a value 10 (up to a dilution value equivalent to 10^−7) and an aliquot of 0.1 ml of each dilution was double streaked on M-Ha +blood 5% for determining the actual titre to be used, subsequently, to determine the MBC (Minimum Bactericidal Concentration).
The assay was carried out in 96-well microtitre plates. 50 μl of M-Hb at normal concentration were deposited in the first well of each of the 5 rows. Starting from the first well of each row, […] volumes were transferred from each well to the subsequent one 10 times, thus obtaining a series of dilutions after doubling. The 12th well of each row was kept substance-free as a positive control of the bacterial growth.
Subsequently, 50 μl of bacterial inoculum of M-Hb+double concentration blood (4%) were deposited in all wells of the plate, except for the 11th of each row. Only M-Hb+double concentration blood but bacteria-free, were deposited in the 11th well, with the aim of providing negative control for each row. The described scheme was used for the assay of each of the three Streptococcus agalactiae strains.
(§1) Immediately after determining the value of the MIC for each substance, a volume equivalent to 50 μl was taken from each well and streaked on the surface of plates containing the solid medium. The plates were subsequently incubated at the conditions indicated for each microbial strain. After incubation at 37° C. for 24 hours, the number of colonies grown on the medium surface was counted thus determining the number of bacteria that survived after 24 hours of contact with the substance at the concentration present in the well. The MBC value defined as the lowest concentration of each substance capable of reducing the bacterial load by 99.9% in the previously defined assay conditions was determined through comparison between the number of bacteria that survived in each well and that of the bacterial inoculum deposited initially.

For experiment [2], the system named is Neisseria gonorrhoeae ATCC 43069. Put plainly: MBC against Neisseria gonorrhoeae. As to the method: as §1, with “The Gardnerella vaginalis ATCC 14018 strain, the Neisseria gonorrhoeae ATCC 43069 strain and the Candida albicans ATCC 10231 strain were also used for the experiment. [table] The other assayed microbial strains were cultured in the liquid media and in the incubation conditions specified in table A, following the operating procedure described above. Immediately” for “Immediately”

Experiment [3] has the same test system. Put plainly: MIC against Neisseria gonorrhoeae. As to the method: The Gardnerella vaginalis ATCC 14018 strain, the Neisseria gonorrhoeae ATCC 43069 strain and the Candida albicans ATCC 10231 strain were also used for the experiment.
The other assayed microbial strains were cultured in the liquid media and in the incubation conditions specified in table A, following the operating procedure described above.
The assay was carried out in 96-well microtitre plates. 50 μl of substance solution at the “mother” concentration alongside 50 μl of liquid medium at double concentration were deposited in the first well of each of the 8 rows while 50 μl of liquid medium at normal concentration were deposited in the remaining 11 wells. Starting from the first well of each row, 50 μl volumes were transferred from each well to the subsequent one 10 times, thus obtaining a series of 11 dilutions after doubling. The 12th well of each row was kept substance-free as a function of positive control of the bacterial growth.
Subsequently, 50 μl of diluted bacterial inoculum as specified previously were deposited in all wells of the plate, except for the 11th of each row. Only the liquid medium at single concentration but bacteria-free, was deposited in the 11th well, with the aim of providing negative control for each row. The described scheme was used for the assay with each of the assayed microbial strains. […]

For the substance “caprylyl/capryl glucoside/C8-C10 alkyl polyglucoside [Substance A1]”, the MIC in experiment [1] came to 0.193%. The MBC amounted to 0.097 in the experiment on Streptococcus agalactiae (ATCC 12386 in M-Hb blood 2%), 0.097 against Streptococcus agalactiae (Strain 2 in M-Hb blood 2%), 0.194 in the experiment with Streptococcus agalactiae (Strain 10 in M-Hb blood 2%) and 0.097 against Streptococcus agalactiae (Strain 11 in M-Hb blood 2%).

For the substance “lauryl glucoside/C12-C16 alkyl polyglucoside [Substance A2]”, the MBC entry in experiment [2] is given as “≦0.0012%”; in the experiment on Streptococcus agalactiae (ATCC 12386 in M-Hb blood 2%), 0.0097; in the experiment with Streptococcus agalactiae (Strain 2 in M-Hb blood 2%), 0.0097; against Streptococcus agalactiae (Strain 10 in M-Hb blood 2%) it was 0.019; with Streptococcus agalactiae (Strain 11 in M-Hb blood 2%), 0.0097. Besides, the MIC in experiment [1] is reported as 0.077%; in experiment [3], “≦0.0012%”.
